Our source for the IC50 and EC50 values is patent US11739074B2, “Ras inhibitors” (Revolution Medicines, Inc., priority 2019, dated 2023).

Read-outs that look alike come from different tables or passages of the source. A value given as a limit tells only on which side of the number the result lay.

In general, IC50 refers to the concentration that gives 50% inhibition. For orientation: EC50 means the concentration needed to bring the measured effect to its halfway point.

The test system of assay [1] is AsPC-1 (K-Ras G12D). Briefly: CellTiter-Glo cell viability assay, AsPC-1. The assay is classed as cell-based. The note with it: Homo sapiens, ASPC1, 120 h. The gist of the method:
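Test compounds were dispensed directly onto seeded cells, and on day 5 plates were brought to room temperature for about 30 minutes before CellTiter-Glo luminescence was read. Signals were expressed as percent of the mean DMSO control and fitted with a four-parameter logistic model.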
(ATP-based viability assays read luminescence as a measure of living cells.)

Assay [2] concerns AsPC-1 (K-Ras G12D). The experiment in a line: Potency assay: pERK in AsPC-1 cells. Type of assay: cell-based. The note with it: Homo sapiens.
Where [3] appears, read: AsPC-1, K-Ras G12D, 5-day treatment, read-out: AsPC-1 Cell Viability IC50.
Setting [4] is: ASPC1, AsPC-1 cells, K-Ras G12D, read-out: pERK EC50 (AsPC-1 KRAS G12D).
The mark [5] stands for this setting: read-out: AsPC-1 Cell Viability IC50, AsPC-1, K-Ras G12D, 5-day treatment.
The mark [6] stands for this setting: ASPC1, read-out: pERK EC50 (AsPC-1 KRAS G12D).

For the compound `CCn1c(-c2cccnc2[C@H](C)OC)c2c3cc(ccc31)-c1cc(O)cc(c1)C[C@H](NC(=O)[C@H](C(C)C)N(C)C(=O)[C@@]1(F)CCN(C(=O)[C@@H]3CN3)C1)C(=O)N1CCC[C@H](N1)C(=O)OCC(C)(C)C2` [Compound 185], the IC50 in assay [1] (setting [3]) is 1000 to 10000 nM. The half-maximal effective concentration (EC50) in assay [2] (setting [4]) was under 5 µM.
Regarding `CCn1c(-c2cccnc2[C@H](C)OC)c2c3cc(ccc31)-c1cc(O)cc(c1)C[C@H](NC(=O)[C@H](C(C)C)N(C)C(=O)c1ccc(NC(=O)[C@@H]3CN3)cn1)C(=O)N1CCC[C@H](N1)C(=O)OCC(C)(C)C2` [Compound 187], the half-inhibitory concentration (IC50) in assay [1] (setting [3]) fell in the range of 1000 to 10000 nM. Also, the EC50 in assay [2] (setting [4]) is under 5 µM.
In the case of `CCn1c(-c2cccnc2[C@H](C)OC)c2c3cc(ccc31)-c1cc(O)cc(c1)C[C@H](NC(=O)[C@H](C(C)C)N(C)C(=O)N1CCCN(C(=O)[C@H]3CN3)CC1)C(=O)N1CCC[C@H](N1)C(=O)OCC(C)(C)C2` [Compound 190], the IC50 in assay [1] (setting [3]) was in the range of 1000 to 10000 nM. Further, the EC50 in assay [2] (setting [4]) was under 5 µM.
As for `CCn1c(-c2cccnc2[C@H](C)OC)c2c3cc(ccc31)-c1cc(O)cc(c1)C[C@H](NC(=O)[C@H](C(C)C)N(C)C(=O)[C@H]1CCN(C(=O)[C@@H]3N[C@@H]3C3CC3)C1)C(=O)N1CCC[C@H](N1)C(=O)OCC(C)(C)C2` [Compound 198], the IC50 in assay [1] (setting [3]) is 100 to 1000 nM. In assay [2] (setting [4]), the half-maximal effective concentration (EC50) is under 5 µM.
On the same counts, the results for `CCn1c(-c2cccnc2[C@H](C)OC)c2c3cc(ccc31)-c1cc(O)cc(c1)C[C@H](NC(=O)[C@H](C(C)C)N(C)C(=O)N(C)CCN(C)C(=O)[C@H]1CN1)C(=O)N1CCC[C@H](N1)C(=O)OCC(C)(C)C2` [Compound 204] are 1000 to 10000 nM and under 5 µM.
For `CCn1c(-c2cccnc2[C@H](C)OC)c2c3cc(ccc31)-c1cc(O)cc(c1)C[C@H](NC(=O)[C@H](C(C)C)N(C)C(=O)N1CCN(C(=O)[C@@H]3CN3)CC1=O)C(=O)N1CCC[C@H](N1)C(=O)OCC(C)(C)C2` [Compound 205] the same measures were over 10000 nM and under 5 µM.
For `CCn1c(-c2cccnc2[C@H](C)OC)c2c3cc(ccc31)-c1csc(n1)C[C@H](NC(=O)[C@H](C(C)C)N(C)C(=O)N1CC(N(C)C(=O)[C@@H]3CN3)C1)C(=O)N1CCC[C@H](N1)C(=O)OCC(C)(C)C2` [Compound 219] the same measures were 1000 to 10000 nM and under 5 µM.
Take `CCn1c(-c2cccnc2[C@H](C)OC)c2c3cc(ccc31)-c1csc(n1)C[C@H](NC(=O)[C@H](C(C)C)N(C)C(=O)N(C)C1CN(C(=O)[C@H]3CN3)C1)C(=O)N1CCC[C@H](N1)C(=O)OCC(C)(C)C2` [Compound 220]: the IC50 in assay [1] (setting [3]) is 1000 to 10000 nM. For the same compound, the half-maximal effective concentration (EC50) in assay [2] (setting [4]) was under 5 µM.
Turning to `CCn1c(-c2cccnc2[C@H](C)OC)c2c3cc(ccc31)-c1csc(n1)C[C@H](NC(=O)[C@H](C(C)C)N(C)C(=O)N(C)C1CN(C(=O)[C@@H]3CN3)C1)C(=O)N1CCC[C@H](N1)C(=O)OCC(C)(C)C2` [Compound 221], the IC50 in assay [1] (setting [3]) was in the range of 1000 to 10000 nM. Also, in assay [2] (setting [4]), the 50% effective concentration (EC50) is under 5 µM.
On the same counts, the results for `CCn1c(-c2cccnc2[C@H](C)OC)c2c3cc(ccc31)-c1csc(n1)C[C@H](NC(=O)[C@H](C(C)C)N(C)C(=O)N1CC[C@H](N(C)C(=O)[C@@H]3CN3)C1)C(=O)N1CCC[C@H](N1)C(=O)OCC(C)(C)C2` [Compound 229] are 1000 to 10000 nM and under 5 µM.
For the compound `CCn1c(-c2cccnc2[C@H](C)OC)c2c3cc(ccc31)-c1cc(O)cc(c1)C[C@H](NC(=O)[C@H](C(C)C)N(C)C(=O)[C@@H]1CCCN(C(=O)[C@H]3CN3)C1)C(=O)N1CCC[C@H](N1)C(=O)OCC(C)(C)C2` [Compound 237], in assay [1] (setting [3]), the 50% inhibitory concentration (IC50) lay within 1000 to 10000 nM. Moreover, the EC50 in assay [2] (setting [4]) is under 5 µM.
On the same counts, the results for `CCn1c(-c2cccnc2[C@H](C)OC)c2c3cc(ccc31)-c1cc(O)cc(c1)C[C@H](NC(=O)[C@H](C(C)C)N(C)C(=O)[C@@H]1CCCN(C(=O)[C@@H]3CN3)C1)C(=O)N1CCC[C@H](N1)C(=O)OCC(C)(C)C2` [Compound 238] are 1000 to 10000 nM and under 5 µM.
For `CCn1c(-c2cccnc2[C@H](C)OC)c2c3cc(ccc31)-c1cc(O)cc(c1)C[C@H](NC(=O)[C@@H](C(C)C)N(C)C(=O)[C@@]1(C)CCCN1C(=O)[C@@H]1CN1)C(=O)N1CCC[C@H](N1)C(=O)OCC(C)(C)C2` [Compound 242] the same measures were 1000 to 10000 nM and under 5 µM.
Regarding `CCn1c(-c2cccnc2[C@H](C)OC)c2c3cc(ccc31)-c1cc(O)cc(c1)C[C@H](NC(=O)[C@H](C(C)C)N(C)C(=O)[C@]13C[C@H]1CCN3C(=O)[C@H]1CN1)C(=O)N1CCC[C@H](N1)C(=O)OCC(C)(C)C2` [Compound 244], the IC50 in assay [1] (setting [3]) was in the range of 1000 to 10000 nM. The EC50 in assay [2] (setting [4]) is under 5 µM.
On the same counts, the results for `CCn1c(-c2cccnc2[C@H](C)OC)c2c3cc(ccc31)-c1cc(O)cc(c1)C[C@H](NC(=O)[C@H](C(C)C)N(C)C(=O)[C@H]1C[C@H]3CC[C@@H](C1)N3C(=O)[C@H]1CN1)C(=O)N1CCC[C@H](N1)C(=O)OCC(C)(C)C2` [Compound 245] are 1000 to 10000 nM and under 5 µM.
Regarding `CCn1c(-c2cccnc2[C@H](C)OC)c2c3cc(ccc31)-c1cc(O)cc(c1)C[C@H](NC(=O)[C@H](C(C)C)N(C)C(=O)[C@H]1C[C@H]3CC[C@@H](C1)N3C(=O)[C@@H]1CN1)C(=O)N1CCC[C@H](N1)C(=O)OCC(C)(C)C2` [Compound 246], in assay [1] (setting [3]), the IC50 lay within 1000 to 10000 nM. Moreover, the EC50 in assay [2] (setting [4]) is under 5 µM.
On to `CCn1c(-c2cccnc2[C@H](C)OC)c2c3cc(ccc31)-c1cc(O)cc(c1)C[C@H](NC(=O)[C@H](C(C)C)N(C)C(=O)[C@H]1CCCCN(C(=O)[C@H]3CN3)C1)C(=O)N1CCC[C@H](N1)C(=O)OCC(C)(C)C2` [Compound 247], for which the IC50 in assay [1] (setting [3]) was in the range of 1000 to 10000 nM. Besides, in assay [2] (setting [4]), the concentration giving a half-maximal response (EC50) was under 5 µM.
For `CCn1c(-c2cccnc2[C@H](C)OC)c2c3cc(ccc31)-c1cc(O)cc(c1)C[C@H](NC(=O)[C@H](C(C)C)N(C)C(=O)N1CC[C@H](N(C)C(=O)[C@H]3CN3)C1)C(=O)N1CCC[C@H](N1)C(=O)OCC(C)(C)C2` [Compound 254] the same measures were over 10000 nM and under 5 µM.
On the same counts, the results for `CCn1c(-c2cccnc2[C@H](C)OC)c2c3cc(ccc31)-c1cc(O)cc(c1)C[C@H](NC(=O)[C@H](C(C)C)N(C)C(=O)N1CC[C@H](N(C)C(=O)[C@@H]3CN3)C1)C(=O)N1CCC[C@H](N1)C(=O)OCC(C)(C)C2` [Compound 255] are 1000 to 10000 nM and under 5 µM.
On to `CCn1c(-c2cccnc2[C@H](C)OC)c2c3cc(ccc31)-c1cc(O)cc(c1)C[C@H](NC(=O)[C@H](C(C)C)N(C)C(=O)CN(C)C(=O)[C@@H]1CN1CCCN1CCCC1=O)C(=O)N1CCC[C@H](N1)C(=O)OCC(C)(C)C2` (stereo partly shown) [Compound 269], for which, in assay [1] (setting [5]), the IC50 is 1000 to 10000 nM. For the same compound, the EC50 in assay [2] (setting [6]) was under 5 µM.
Consider `CCn1c(-c2cccnc2[C@H](C)OC)c2c3cc(ccc31)-c1cc(O)cc(c1)C[C@H](NC(=O)[C@H](C(C)C)N(C)C(=O)CN(C)C(=O)[C@@H]1CN1CC(=O)N(C)C)C(=O)N1CCC[C@H](N1)C(=O)OCC(C)(C)C2` (stereo partly shown) [Compound 271], for which the IC50 in assay [1] (setting [5]) is over 10000 nM. Further, the EC50 in assay [2] (setting [6]) is under 5 µM.
On the same counts, the results for `CCn1c(-c2cccnc2[C@H](C)OC)c2c3cc(ccc31)-c1cc(O)cc(c1)C[C@H](NC(=O)[C@H](C(C)C)N(C)C(=O)CN(C)C(=O)[C@H]1CN1CCCN1CCOC1=O)C(=O)N1CCC[C@H](N1)C(=O)OCC(C)(C)C2` (stereo partly shown) [Compound 272] are 1000 to 10000 nM and under 5 µM.
Consider `CCn1c(-c2cccnc2[C@H](C)OC)c2c3cc(ccc31)-c1cc(O)cc(c1)C[C@H](NC(=O)[C@H](C(C)C)N(C)C(=O)CN(C)C(=O)[C@H]1CN1C1COC1)C(=O)N1CCC[C@H](N1)C(=O)OCC(C)(C)C2` (stereo partly shown) [Compound 275], for which, in assay [1] (setting [5]), the IC50 fell in the range of 1000 to 10000 nM. Moreover, the half-maximal effective concentration (EC50) in assay [2] (setting [6]) is under 5 µM.
On the same counts, the results for `CCn1c(-c2cccnc2[C@H](C)OC)c2c3cc(ccc31)-c1cc(O)cc(c1)C[C@H](NC(=O)[C@H](C(C)C)N(C)C(=O)CN(C)C(=O)[C@@H]1CN1CC1COC1)C(=O)N1CCC[C@H](N1)C(=O)OCC(C)(C)C2` (stereo partly shown) [Compound 278] are 1000 to 10000 nM and under 5 µM.
For `CCn1c(-c2cccnc2[C@H](C)OC)c2c3cc(ccc31)-c1cc(O)cc(c1)C[C@H](NC(=O)[C@H](C(C)C)N(C)C(=O)CN(C)C(=O)[C@@H]1N[C@@H]1C1COC1)C(=O)N1CCC[C@H](N1)C(=O)OCC(C)(C)C2` [Compound 281] the same measures were 100 to 1000 nM and under 5 µM.
For `CCn1c(-c2cccnc2[C@H](C)OC)c2c3cc(ccc31)-c1cc(O)cc(c1)C[C@H](NC(=O)[C@H](C(C)C)N(C)C(=O)CN(C)C(=O)[C@H]1N[C@H]1C1COC1)C(=O)N1CCC[C@H](N1)C(=O)OCC(C)(C)C2` [Compound 282] the same measures were 1000 to 10000 nM and under 5 µM.
For `CCn1c(-c2cccnc2[C@H](C)OC)c2c3cc(ccc31)-c1cc(O)cc(c1)C[C@H](NC(=O)[C@H](C(C)C)N(C)C(=O)CN(C)C(=O)[C@H]1N[C@@H]1C1COC1)C(=O)N1CCC[C@H](N1)C(=O)OCC(C)(C)C2` [Compound 284], the half-maximal inhibitory concentration (IC50) in assay [1] (setting [5]) is 1000 to 10000 nM. For the same compound, in assay [2] (setting [6]), the half-maximal effective concentration (EC50) was under 5 µM.
Consider `CCn1c(-c2cccnc2[C@H](C)OC)c2c3cc(ccc31)-c1cc(O)cc(c1)C[C@H](NC(=O)[C@H](C(C)C)N(C)C(=O)[C@H]1C[C@@H]3N[C@@H]3C1)C(=O)N1CCC[C@H](N1)C(=O)OCC(C)(C)C2` [Compound 286], for which, in assay [1] (setting [3]), the half-inhibitory concentration (IC50) lay within 1000 to 10000 nM. In assay [2] (setting [4]), the half-maximal effective concentration (EC50) was under 5 µM.
For `CCn1c(-c2cccnc2[C@H](C)OC)c2c3cc(ccc31)-c1csc(n1)C[C@H](NC(=O)[C@H](C(C)C)N(C)C(=O)N(C)[C@H]1CCCN(C(=O)[C@H]3CN3)C1)C(=O)N1CCC[C@H](N1)C(=O)OCC(C)(C)C2` [Compound 295] the same measures were 1000 to 10000 nM and under 5 µM.
